System: PBMC (polyclonal gluten-specific T cells) of paediatric and adult CD patients
Test: IFN-γ ELISpot of PBMC after 3 day oral wheat challenge (SFU, % of maximal peptide response, dominance scores, EC50; Examples 5-6)
Type: cell-based, human
Conditions: for IFN-γ ELISpot response: after oral wheat challenge; for Cross-reactive T cell response: following wheat challenge
[1] = patient G, 11-17 yrs, cut-off 10 SFU
[2] = patient H, 11-17 yrs, cut-off 10 SFU
[3] = patient ID not given, 11-17 yrs, cut-off 10 SFU
[4] = patient P, 11-17 yrs, cut-off 21.6 SFU
[5] = patient Q, 11-17 yrs, cut-off 10 SFU
[6] = patient U, H, 11-17 yrs, cut-off 10 SFU
[7] = patient V, 6-10 yrs, cut-off 10 SFU
[8] = patient Y, 6-10 yrs, cut-off 10 SFU
[9] = patient eleven, 6-10 yrs, cut-off 10 SFU
[10] = patient four, 3-5yrs, cut-off 10 SFU
[11] = patient seven, 6-10 yrs, cut-off 10.5 SFU
[12] = patient ten, 3-5yrs, cut-off 10 SFU
[13] = patient three, 6-10 yrs, cut-off 10.5 SFU
[14] = patient two, 3-5yrs, cut-off 10 SFU
[15] = subject I (3-5yrs/6-10yrs part)
[16] = subject J (3-5yrs/6-10yrs part)
[17] = subject K (3-5yrs/6-10yrs part)
[18] = subject V (3-5yrs/6-10yrs part)
[19] = subject W (3-5yrs/6-10yrs part)
[20] = subject Y (3-5yrs/6-10yrs part)
[21] = subject five (3-5yrs/6-10yrs part)
[22] = subject seven (3-5yrs/6-10yrs part)
[23] = subject six (3-5yrs/6-10yrs part)
[24] = subject ten (3-5yrs/6-10yrs part)
[25] = subject two (3-5yrs/6-10yrs part)

With PFPLQPEQPFPQP the “IFN-γ ELISpot response” value (patient A, 11-17 yrs, cut-off 10 SFU) was 6 SFU, the “Significant response as percentage of maximal peptide SFU” value (shortened to “Significant response as percentage”) (patient D, max peptide 30.5 SFU) was “′′′ (41-70% = ′′′)” and the “IFN-γ ELISpot response” value (patient E, H, 11-17 yrs, cut-off 10 SFU) was 30 SFU. For the same sequence, the “Significant response as percentage” value (patient E, max peptide 224 SFU) was “′ (11-20% = ′)”, the “IFN-γ ELISpot response” value (patient F, 11-17 yrs, cut-off 10 SFU) was 35 SFU and the “Significant response as percentage” value (patient F, max peptide 178 SFU) was “′ (11-20% = ′)”. The “IFN-γ ELISpot response” value [1] was 2 SFU, the “IFN-γ ELISpot response” value (patient H (HLA-DQ2.5 homozygote), 3-5yrs, cut-off 10 SFU) was 24 SFU and the “IFN-γ ELISpot response” value [2] was 11 SFU. The “Significant response as percentage” value (patient H, max peptide 17 SFU) was “′′′ (41-70% = ′′′)”, the “IFN-γ ELISpot response” value [3] was 28 SFU and the “Significant response as percentage” value (patient ID not given, max peptide 95 SFU) was “′′ (21-40% = ′′)”. The “Significant response as percentage” value (patient II, max peptide 15 SFU) was “+ (>70% = +)”, the “Significant response as percentage” value (patient J, max peptide 196 SFU) was “′′ (21-40% = ′′)” and the “Significant response as percentage” value (patient K, max peptide 53 SFU) was “′′′ (41-70% = ′′′)”. For the same sequence, the “Significant response as percentage” value (patient M, max peptide 48 SFU) was “′′′ (41-70% = ′′′)”, the “IFN-γ ELISpot response” value (patient N, 3-5yrs, cut-off 10 SFU) was 7 SFU and the “IFN-γ ELISpot response” value [4] was 27 SFU. For the same sequence, the “Significant response as percentage” value (patient P, max peptide 64 SFU) was “′′′ (41-70% = ′′′)”, the “IFN-γ ELISpot response” value [5] was 43 SFU and the “Significant response as percentage” value (patient Q, max peptide 97 SFU) was “′′′ (41-70% = ′′′)”. The “IFN-γ ELISpot response” value [6] was 23 SFU, the “Significant response as percentage” value (patient U, max peptide 81 SFU) was “′′ (21-40% = ′′)” and the “IFN-γ ELISpot response” value [7] was 21 SFU. The “Significant response as percentage” value (patient V, max peptide 35 SFU) was “′′′ (41-70% = ′′′)”, the “Significant response as percentage” value (patient W, max peptide 30 SFU) was “+ (>70% = +)” and the “IFN-γ ELISpot response” value [8] was 9 SFU. The “Significant response as percentage” value (patient eight, max peptide 12 SFU) was “+ (>70% = +)”, the “IFN-γ ELISpot response” value [9] was 8 SFU and the “Significant response as percentage” value (patient five, max peptide 48 SFU) was “+ (>70% = +)”. The “IFN-γ ELISpot response” value [10] was 22 SFU, the “Significant response as percentage” value (patient four, max peptide 44 SFU) was “′′′ (41-70% = ′′′)” and the “IFN-γ ELISpot response” value [11] was 27 SFU. The “Significant response as percentage” value (patient seven, max peptide 27 SFU) was “+ (>70% = +)”, the “IFN-γ ELISpot response” value [12] was 8 SFU and the “IFN-γ ELISpot response” value [13] was 52 SFU. For the same sequence, the “IFN-γ ELISpot response” value (patient twelve, 11-17 yrs, cut-off 10 SFU) was 15 SFU, the “IFN-γ ELISpot response” value [14] was 24 SFU and the “Significant response as percentage” value (patient two, max peptide 60 SFU) was “′′ (21-40% = ′′)”.

In the case of QPFPQPEQPIPYQ, the “Cross-reactive T cell response” value (subject A, 11-17yrs) is reported as 8 SFU, the “Significant response as a percentage of maximal peptide SFU” value (from here on “Significant response as a percentage”) (subject D, 11-17yrs) is reported as “+ (>70% = +)” and the “Cross-reactive T cell response” value (subject D, 11-17yrs) is reported as 23 SFU. The “Significant response as a percentage” value (subject E, 11-17yrs) was “′′ (21-40% = ′′)”, the “Cross-reactive T cell response” value (subject E, 11-17yrs) was 86 SFU and the “Significant response as a percentage” value (subject F, 11-17yrs) was “′′′ (41-70% = ′′′)”. For the same sequence, the “Cross-reactive T cell response” value (subject F, 11-17yrs) was 84 SFU, the “Cross-reactive T cell response” value (subject G, 11-17yrs) was 2 SFU and the “Cross-reactive T cell response” value (subject H) was 3 SFU. The “Cross-reactive T cell response” value [15] was 5 SFU, the “Significant response as a percentage” value (subject J) was “′′′ (41-70% = ′′′)” and the “Cross-reactive T cell response” value [16] was 124 SFU. The “Significant response as a percentage” value (subject K) was “′′ (21-40% = ′′)”, the “Cross-reactive T cell response” value [17] was 21 SFU and the “Significant response as a percentage” value (subject P, 11-17yrs) was “′′′ (41-70% = ′′′)”. For the same sequence, the “Cross-reactive T cell response” value (subject P, 11-17yrs) was 33 SFU, the “Significant response as a percentage” value (subject Q, 11-17yrs) was “′′′ (41-70% = ′′′)” and the “Cross-reactive T cell response” value (subject Q, 11-17yrs) was 58 SFU. For the same sequence, the “Significant response as a percentage” value (subject T, 11-17yrs) was “+ (>70% = +)”, the “Cross-reactive T cell response” value (subject T, 11-17yrs) was 84 SFU and the “Significant response as a percentage” value (subject U, 11-17yrs) was “′′′ (41-70% = ′′′)”. For the same sequence, the “Cross-reactive T cell response” value (subject U, 11-17yrs) was 55 SFU, the “Significant response as a percentage” value (subject V) was “′′′ (41-70% = ′′′)” and the “Cross-reactive T cell response” value [18] was 22 SFU. For the same sequence, the “Cross-reactive T cell response” value [19] was 11 SFU, the “Significant response as a percentage” value (subject Y) was “′′′ (41-70% = ′′′)” and the “Cross-reactive T cell response” value [20] was 11 SFU. For the same sequence, the “Significant response as a percentage” value (subject five) was “′′′ (41-70% = ′′′)”, the “Cross-reactive T cell response” value [21] was 30 SFU and the “Cross-reactive T cell response” value (subject nine, 11-17yrs) was 0 SFU. For the same sequence, the “Cross-reactive T cell response” value [22] was 8 SFU, the “Significant response as a percentage” value (subject six) was “+ (>70% = +)” and the “Cross-reactive T cell response” value [23] was 11 SFU. For the same sequence, the “Cross-reactive T cell response” value [24] was 9 SFU, the “Significant response as a percentage” value (subject two) was “′′′ (41-70% = ′′′)” and the “Cross-reactive T cell response” value [25] was 31 SFU.

NPLQPEQPFPLQPQPP was tested, and the “Cross-reactive T cell response” value (subject A, 11-17yrs) was 3 SFU, the “Significant response as a percentage” value (subject D, 11-17yrs) was “′′ (21-40% = ′′)” and the “Cross-reactive T cell response” value (subject D, 11-17yrs) was 12 SFU. The “Significant response as a percentage” value (subject E, 11-17yrs) was “(6-10% - ^)”, the “Cross-reactive T cell response” value (subject E, 11-17yrs) was 21 SFU and the “Significant response as a percentage” value (subject F, 11-17yrs) was “′ (11-20% = ′)”. The “Cross-reactive T cell response” value (subject F, 11-17yrs) was 25 SFU, the “Cross-reactive T cell response” value (subject G, 11-17yrs) was 1 SFU and the “Significant response as a percentage” value (subject H, 11-17yrs) was “+ (>70% = +)”. For the same sequence, the “Cross-reactive T cell response” value (subject H) was 14 SFU, the “Cross-reactive T cell response” value [15] was 1 SFU and the “Significant response as a percentage” value (subject J) was “′ (11-20% = ′)”. The “Cross-reactive T cell response” value [16] was 38 SFU, the “Significant response as a percentage” value (subject K) was “′′ (21-40% = ′′)” and the “Cross-reactive T cell response” value [17] was 19 SFU. The “Cross-reactive T cell response” value (subject P, 11-17yrs) was 6 SFU, the “Significant response as a percentage” value (subject Q, 11-17yrs) was “′′ (21-40% = ′′)” and the “Cross-reactive T cell response” value (subject Q, 11-17yrs) was 23 SFU. For the same sequence, the “Significant response as a percentage” value (subject T, 11-17yrs) was “′′ (21-40% = ′′)”, the “Cross-reactive T cell response” value (subject T, 11-17yrs) was 33 SFU and the “Cross-reactive T cell response” value (subject U, 11-17yrs) was 9 SFU. The “Cross-reactive T cell response” value [18] was 6 SFU, the “Cross-reactive T cell response” value [19] was 7 SFU and the “Cross-reactive T cell response” value [20] was 3 SFU. For the same sequence, the “Significant response as a percentage” value (subject five) was “′′ (21-40% = ′′)”, the “Cross-reactive T cell response” value [21] was 14 SFU and the “Cross-reactive T cell response” value (subject nine, 11-17yrs) was 1 SFU. The “Cross-reactive T cell response” value [22] was 4 SFU, the “Significant response as a percentage” value (subject six) was “+ (>70% = +)” and the “Cross-reactive T cell response” value [23] was 13 SFU. For the same sequence, the “Significant response as a percentage” value (subject ten) was “+ (>70% = +)”, the “Cross-reactive T cell response” value [24] was 11 SFU and the “Significant response as a percentage” value (subject two) was “′ (11-20% = ′)”. For the same sequence, the “Cross-reactive T cell response” value [25] was 10 SFU.

For FPQTEQPEQPFPQP, the “Cross-reactive T cell response” value (subject A, 11-17yrs) was 1 SFU, the “Cross-reactive T cell response” value (subject D, 11-17yrs) was 0 SFU and the “Cross-reactive T cell response” value (subject E, 11-17yrs) was 3 SFU. The “Cross-reactive T cell response” value (subject F, 11-17yrs) was 2 SFU, the “Cross-reactive T cell response” value (subject G, 11-17yrs) was 2 SFU and the “Cross-reactive T cell response” value (subject H) was 1 SFU. For the same sequence, the “Cross-reactive T cell response” value [15] was 0 SFU, the “Significant response as a percentage” value (subject J) was “′′ (21-40% = ′′)” and the “Cross-reactive T cell response” value [16] was 67 SFU. The “Significant response as a percentage” value (subject K) was “′′ (21-40% = ′′)”, the “Cross-reactive T cell response” value [17] was 19 SFU and the “Cross-reactive T cell response” value (subject P, 11-17yrs) was 3 SFU. The “Significant response as a percentage” value (subject Q, 11-17yrs) was “′ (11-20% = ′)”, the “Cross-reactive T cell response” value (subject Q, 11-17yrs) was 10 SFU and the “Cross-reactive T cell response” value (subject T, 11-17yrs) was 7 SFU. The “Cross-reactive T cell response” value (subject U, 11-17yrs) was 5 SFU, the “Cross-reactive T cell response” value [18] was 6 SFU and the “Cross-reactive T cell response” value [19] was 5 SFU. For the same sequence, the “Cross-reactive T cell response” value [20] was 3 SFU, the “Cross-reactive T cell response” value [21] was 5 SFU and the “Cross-reactive T cell response” value (subject nine, 11-17yrs) was 0 SFU. For the same sequence, the “Cross-reactive T cell response” value [22] was 5 SFU, the “Cross-reactive T cell response” value [23] was 4 SFU and the “Significant response as a percentage” value (subject ten) was “+ (>70% = +)”. The “Cross-reactive T cell response” value [24] was 13 SFU and the “Cross-reactive T cell response” value [25] was 3 SFU.

GIIQPQQPAQL was tested, and the “IFN-γ ELISpot response” value [1] was 0 SFU, the “IFN-γ ELISpot response” value [2] was 1 SFU and the “IFN-γ ELISpot response” value [3] was 2 SFU. The “Significant response as percentage” value (patient II, max peptide 15 SFU) was “+ (>70% = +)”, the “Significant response as percentage” value (patient K, max peptide 53 SFU) was “′′ (21-40% = ′′)” and the “IFN-γ ELISpot response” value [4] was 7 SFU. The “IFN-γ ELISpot response” value [5] was 0 SFU, the “IFN-γ ELISpot response” value [6] was 4 SFU and the “IFN-γ ELISpot response” value [7] was 5 SFU. The “IFN-γ ELISpot response” value [8] was 2 SFU, the “IFN-γ ELISpot response” value [9] was 1 SFU and the “IFN-γ ELISpot response” value [10] was 0 SFU. The “IFN-γ ELISpot response” value [11] was 3 SFU, the “IFN-γ ELISpot response” value [12] was 5 SFU and the “IFN-γ ELISpot response” value [13] was 3 SFU. For the same sequence, the “IFN-γ ELISpot response” value [14] was 0 SFU.

— patent publication US20170232083A1, “METHODS OF DIAGNOSIS AND TREATMENT OF CELIAC DISEASE IN CHILDREN” (priority 2014, published 2017)
